Here are results for 3 molecules from EP2289904A1, “Inhibitors of microbial infections” (Universita' degli Studi di Milano, priority 2009, dated 2011).

Test [1] has as its system Ebola virus. As to conditions: Ebola virus infection model; Reina et al. 2007; cited from earlier work.
The target of test [2] is T1, dendritic cell receptor DC-SIGN (Homo sapiens, UniProt Q9NNX6).
T1 sequence (Q9NNX6 1-404): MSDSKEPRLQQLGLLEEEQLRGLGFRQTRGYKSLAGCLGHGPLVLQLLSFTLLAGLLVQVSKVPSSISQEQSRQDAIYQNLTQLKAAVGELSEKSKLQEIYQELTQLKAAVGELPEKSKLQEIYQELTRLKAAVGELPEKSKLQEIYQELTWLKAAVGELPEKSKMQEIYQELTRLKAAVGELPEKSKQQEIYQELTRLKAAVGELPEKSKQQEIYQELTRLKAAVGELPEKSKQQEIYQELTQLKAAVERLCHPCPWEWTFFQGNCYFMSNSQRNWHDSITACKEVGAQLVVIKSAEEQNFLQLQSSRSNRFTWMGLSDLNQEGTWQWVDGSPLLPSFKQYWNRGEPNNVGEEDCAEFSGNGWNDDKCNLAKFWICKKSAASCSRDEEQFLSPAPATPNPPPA
As to conditions: Reina et al. 2007; cited from earlier work.

For test [3], the system named is HIV-1 BaL. The test is described as follows: trans-infection of CD4+ T lymphocytes by B-THP-1/DC-SIGN cells exposed to virus in continued presence of inhibitor, p24 ELISA. A general note: ELISA stands for enzyme-linked immunosorbent assay.
Test [4] relates to HIV-1 BaL. In words: trans-infection assay, B-THP-1/DC-SIGN cells incubated with inhibitor and washed before adding the virus. As to conditions: 5 mM, cells washed with buffer before adding virus (BaL); Figure 3.

Some results are limits rather than exact numbers.

As to `COC(=O)[C@H]1C[C@H](OCCN=[N+]=[N-])[C@@H](O[C@H]2O[C@H](CO)[C@@H](O)[C@H](O)[C@@H]2O)C[C@@H]1C(=O)OC` [compound 1], in test [1], the anti-infective action entry is listed as “moderate anti-infective action”. The “binding to DC-SIGN” value in test [2] is recorded as “binds”. For the molecule `COC(=O)[C@H]1C[C@H](OC[C@H]2O[C@H](OCCN=[N+]=[N-])[C@@H](O)[C@@H](O)[C@@H]2O)[C@@H](O[C@H]2O[C@H](CO)[C@@H](O)[C@H](O)[C@@H]2O)C[C@@H]1C(=O)OC` [compound 2b, α(1,2)α(1,6)pseudomannotriose], the “concentration needed to reach a similar inhibition level, compared with 12” value in test [3] (HIV-1 BaL, Figure 2) is listed as “much higher concentration”. In test [4], the “antiinfective activity in the trans-infection assay” value is recorded as “no antiinfective activity”.

With `OC[C@H]1OC(O)[C@@H](O)[C@@H](O)[C@@H]1O` (some centres unmarked) [Man4], the activity at 100 µM in test [3] (Human immunodeficiency virus 1, BAL, CD4+ T, read-out: infection level) was not below 30%.
